Experimental data from the supplement of paper PMC10307832.

Experiments:
Test in all cases: relative viability (nuclei count vs DMSO), 5 days (fraction); higher = more cells survive
Darinaparsin + OSI-027 = compound: C[As](C)SC[C@H](NC(=O)CC[C@H](N)C(=O)O)C(=O)NCC(=O)O [Darinaparsin] + COc1cccc2cc(-c3nc([C@H]4CC[C@H](C(=O)O)CC4)n4ncnc(N)c34)[nH]c12 [OSI-027] (partner 0.5 µM)
Outline: (§1)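 Lung cancer cell lines in 1536-well plates got either a single drug or a fixed anchor-drug dose together with five library-drug doses (not always all listed) in √10 steps, by pin tool, on the day after seeding. Nuclei were counted after 5 days, and relative viability is the treated-to-vehicle ratio of nuclei counts. Values are medians of duplicate plates.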

QS11 + Bortezomib = compound: C1CC2=C(C1)C=C(C=C2)OC3=NC(=C4C(=N3)N(C=N4)CC5=CC=C(C=C5)C6=CC=CC=C6)N[C@@H](CC7=CC=CC=C7)CO [QS11] + CC(C)C[C@H](NC(=O)[C@H](Cc1ccccc1)NC(=O)c1cnccn1)B(O)O [Bortezomib] (partner 0.002 µM)
Outline: as §1

QS11 + Linsitinib = compound: C1CC2=C(C1)C=C(C=C2)OC3=NC(=C4C(=N3)N(C=N4)CC5=CC=C(C=C5)C6=CC=CC=C6)N[C@@H](CC7=CC=CC=C7)CO [QS11] + C[C@]1(O)C[C@@H](c2nc(-c3ccc4ccc(-c5ccccc5)nc4c3)c3c(N)nccn32)C1 [Linsitinib] (partner 1 µM)
Outline: as §1

AZ628 + Pemetrexed = compound: CC1=C(C=C(C=C1)NC(=O)C2=CC(=CC=C2)C(C)(C)C#N)NC3=CC4=C(C=C3)N=CN(C4=O)C [AZ628] + Nc1nc2[nH]cc(CCc3ccc(C(=O)N[C@@H](CCC(=O)O)C(=O)O)cc3)c2c(=O)[nH]1 [Pemetrexed] (partner 0.2 µM)
Outline: as §1

Cell Line	relative viability (Darinaparsin + OSI-027; first compound 0.08 µM)	relative viability (Darinaparsin + OSI-027; first compound 0.8 µM)	relative viability (Darinaparsin + OSI-027; first compound 2.53 µM)	relative viability (Darinaparsin + OSI-027; first compound 8 µM)	relative viability (QS11 + Bortezomib; first compound 0.08 µM)	relative viability (QS11 + Bortezomib; first compound 0.253 µM)	relative viability (QS11 + Bortezomib; first compound 0.8 µM)	relative viability (QS11 + Bortezomib; first compound 2.53 µM)	relative viability (QS11 + Bortezomib; first compound 8 µM)	relative viability (QS11 + Linsitinib; first compound 0.08 µM)	relative viability (QS11 + Linsitinib; first compound 0.253 µM)	relative viability (QS11 + Linsitinib; first compound 0.8 µM)	relative viability (QS11 + Linsitinib; first compound 2.53 µM)	relative viability (QS11 + Linsitinib; first compound 8 µM)	relative viability (AZ628 + Pemetrexed; first compound 0.08 µM)	relative viability (AZ628 + Pemetrexed; first compound 0.253 µM)	relative viability (AZ628 + Pemetrexed; first compound 0.8 µM)	relative viability (AZ628 + Pemetrexed; first compound 2.53 µM)	relative viability (AZ628 + Pemetrexed; first compound 8 µM)
NCI-H2023	0.483	0.364	0.33	0.486	0.917	0.996	0.877	0.994	0.898	0.729	0.545	0.57	0.713	0.803	0.272	0.208	0.193	0.201	0.125
NCI-H520	0.362	0.302	0.185	0.302		0.593	0.541	0.479	0.471		0.986	1.09	1.18	1.11	0.669	0.596	0.67	0.707	0.286
NCI-H2087	0.604	0.67	0.527	0.705	0.766	0.776	0.677	0.636	0.48	1.01	1.15	0.845	0.655	0.708	0.671	0.632	0.604	0.501	0.281
NCI-H596	0.766	0.845	0.647	0.762		0.807	1.15	0.869	1.06	1.04	1.02	1.01	1.1	1.16	0.496	0.485	0.521	0.525	0.521
NCI-H2009	0.61	0.657	0.584	0.587	0.999	0.898	0.739	0.802	0.755	1.25	1.26	1.13	1.03	0.95	1.1	1.09	1.05	1	0.464
NCI-H1993	0.542	0.527	0.493	0.551	0.959	1	1.04	1.35	0.998	0.622	0.718	0.682	0.7	0.857	0.631	0.598	0.47	0.488	0.461
COR-L23	0.975	0.645	0.785	0.838	1.08	1.13	0.86	0.942	0.765	0.938	1.01	0.767	0.784	0.625	0.22	0.23	0.198	0.219	0.21
NCI-H1792	0.847	0.604	0.866	0.96		1.06	0.684	1.01	1.07		0.559	0.43	0.537	0.68	1	0.677	0.457	0.583	0.368
HOP-62	0.958	0.852	0.694	0.855	0.718	1.01	0.728	0.594	0.652	0.784	1.05	0.852	0.616	0.913	0.311	0.343	0.305	0.409	0.271
NCI-H1437	0.955	0.897	0.935	1.01	0.569	0.325	0.459	0.402	0.336	1.12	1.26	0.698	0.771	0.86	0.332	0.293	0.292	0.296	0.294
HCC-366	1.23	1.1	0.955	1.62	1.28	0.688		0.808	0.318	0.696	0.575		0.355	0.303	0.156	0.215	0.225	0.169	0.161
NCI-H1755	0.725	0.691	0.686	0.841	0.953	0.893	0.605	0.76	0.61	1.07	0.577	0.595	0.814	0.871	0.421	0.434	0.403	0.579	0.353
NCI-H3122	1.21	1	0.95	1.14	1.03	1.1	0.67	1.07	0.864	1	1.17	0.919	1.17	0.842	0.185	0.166	0.161	0.159	0.151
SW 1573	0.736	0.627	0.611	0.87	0.957	1.07	0.971	1.12	0.837	0.837	0.729	0.824	0.817	0.696	0.806	0.79	0.675	0.765	0.461
NCI-H2085	0.778	0.806	0.762	0.673	0.952	1.03	1.16	1.06	1	0.885	1.19	1.01	0.959	1.07	0.951	0.971	0.87	0.865	0.772
NCI-H2405	0.629	0.614	0.545	0.658	0.926	0.946	0.895	1.03	1.03	0.893	0.925	0.946	0.942	1.17	0.839	0.698	0.673	0.632	0.624
NCI-H1666	0.926	0.827	0.847	0.982	0.83	0.722	0.74	0.719	0.564	0.853	0.644	0.644	0.53	0.464	0.788	0.79	0.766	0.788	0.715
BEN	0.312	0.306	0.281	0.299	0.635	1.01	1.07	0.916	1.07	0.851	1.17	1.07	0.79	1.12	0.776	0.614	0.737	0.716	0.749
HARA	0.68	0.502	0.54	0.572	1.25	1.19		1.05	1.24	0.965	1.02		0.912	1.19	0.255	0.221	0.226	0.231	0.193
RERF-LC-KJ	0.592	0.574	0.527	0.596	1.05	1.1	0.956	0.932	0.941	0.933	0.929	0.854	0.868	0.782	0.475	0.474	0.464	0.508	0.467
NCI-H1975	0.971	0.742	0.544	0.961	0.333	0.403	0.541	0.364	0.3	1.1	1.04	0.926	1.31	1.39	0.333	0.257	0.27	0.287	0.259
EPLC-272H		0.285	0.243	0.321	0.954	0.947	0.81	0.946	0.798	1.16	1.47	1.12	1.09	1.23	0.229	0.309	0.265	0.293	0.248
HCC-15	0.737	0.59	0.694	0.707	1.06	1.16		1.03	0.982	0.965	0.993		0.857	0.841	0.231	0.204	0.211	0.226	0.206
COR-L 105	0.625	0.704	0.486	0.559	0.78	0.814	0.772	0.717	0.519	0.964	0.706	0.929	0.732	0.883	1.35	1.03	1.18	1.16	1.03
NCI-H1915	0.741	0.649	0.644	0.749	0.985	1.08		0.967	0.979	1.05	1.14		1.16	1.03	0.518	0.506	0.455	0.359	0.242
NCI-H2347	0.398		0.424	0.407	1.11	1.19	0.757	0.997	1.04	1.04	0.955	0.777	0.712	1.11	0.401	0.415	0.354	0.464	0.321
EKVX	0.723	0.604	0.752	0.833	0.941	1.09		1.07	1.1	1.04	0.995		1.02	0.982	0.419	0.422	0.338	0.407	0.312
LC-2-ad	0.877	0.762	0.67	0.759	0.987	1.03	0.651	0.962	1.1	0.791	0.832	0.699	0.817	0.829	0.3	0.29	0.262	0.274	0.266
